Consider four molecules from patent US4322428A, “2(4-Fluorophenyl)-4,5,-bis(4-methoxyphenyl)thiazole and method of use” (Eli Lilly and Company, priority 1980, dated 1982).

The assay has as its system writhing in Cox standard strain albino male mice. The assay is described as follows: mouse-writhing test (analgesic), acetic acid-induced writhing. The assay is classed as in vivo. The conditions noted are these: oral (p.o.), corn oil-acacia emulsion, writhing induced by intraperitoneal 0.55% (55 mg/kg) acetic acid, read-out: ED50 (effective dosage needed to inhibit 50% of the writhing). The method, then: An intraperitoneal injection of 0.55% (55 mg/kg.) acetic acid induces writhing in the mice, which is characterized by contraction of the abdominal musculature, extension of the hindlegs, and rotation of the trunk. The compounds were administered in a corn oil-acacia emulsion. The number of writhes is counted for both the control and treated animals and the percent inhibition computed as follows: [formula]
All dosages were given orally (p.o.) and are expressed in mg/kg. The term "ED50 " means an effective dosage needed to inhibit 50% of the writhing.
In the case of `COc1ccc(-c2nc(-c3ccccc3)sc2-c2ccc(OC)cc2)cc1` [2-Phenyl-4,5-bis(4-methoxyphenyl)thiazole], the ED50 turned out to be 2.3 mg/kg.

On to `COc1ccc(-c2nc(-c3ccc(F)cc3)sc2-c2ccc(OC)cc2)cc1` [2-(4-Fluorophenyl)-4,5-bis(4-methoxyphenyl)thiazole], for which the ED50 was determined as 0.82 mg/kg.

Take `COc1ccc(-c2nc(-c3ccc(Br)cc3)sc2-c2ccc(OC)cc2)cc1` [2-(4-Bromophenyl)-4,5-bis(4-methoxyphenyl)thiazole]: the ED50 amounted to 1.46 mg/kg.

For `COc1ccc(-c2nc(-c3ccc(Cl)cc3)sc2-c2ccc(OC)cc2)cc1` [2-(4-Chlorophenyl)-4,5-bis(4-methoxyphenyl)thiazole], the ED50 was determined as 3.75 mg/kg.
